The source of these data is patent publication US12018058B2, “Compositions and methods for diagnosing and/or treating kidney injury” (Boston Medical Center Corporation, priority 2018, dated 2024).

Molecules are shown by their SMILES.

The test system of data set [1] is mice subjected to bilateral renal pedicle clamping. In words: Ischemic AKI by bilateral renal pedicle clamping (BUN, creatinine, survival). It is filed as in vivo, C57BL/6J mice. As to conditions: 28 min bilateral pedicle clamping. An excerpt:
All animals were maintained under the guidance and policies of the Boston University Animal Core facility using National Institutes of Health (NIH) and Institutional Animal Care and Use Committee guidelines. Male and female C57BL/6J mice were purchased from Jackson Laboratory (Bar Harbor, ME), and they were housed and bred at the Boston University Animal Core facility under license number AN-15024. […] Animas were handled in a manner consistent with the NIH guide for their care and use under Institutional Animal Care and Use Committee approval.
Mice were subjected to bilateral renal pedicle clamping after being anesthetized with 2,2,2-tribromoethanol. […] 13,28,29 Slight variation in the clamp time was required to achieve similar degrees of renal dysfunction in the relatively large number of animals studied. The clamp was then removed, and reperfusion was confirmed by visual inspection of the kidneys. Sham ischemia was performed by encircling each renal pedicle with a nonocclusive ligature.
For in vitro testing in primary human PTECs, peptides ([…]) were tested that replicate the Bax domain responsible for binding NPM,34 or two peptides designed to interfere with NPM function were compared with a random nonspecific sequence of the same length (control). Peptides intended to interfere with NPM function overlap key phosphorylation sites located at the NPM amino terminus (peptide 2) or carboxy terminus (peptide 3) detected by mass spectrometry. To improve cell uptake, all peptides contained a cell-penetrating sequence13. For in vivo experiments, a renal-targeting sequence (NLS) was added to enhance renal peptide uptake.35 Peptides were commercially synthesized (Biomatik, Wilmington, DE) J Am Soc Nephrol 30: ccc-ccc, 2018 Nucleophosmin in AKI 3www.jasn.org BASIC RESEARCHas follows: NPM-Bax blocking peptide: Ac-KKKRKV-(bA)-[…]-COOH (SEQ ID NO: 8); peptide 2: AC-PKKKRKV-(bA)-[…]-COOH (SEQ ID NO: 9); and peptide 3: AC-PKKKRKV-(bA)-ESFKK-QEKTPKTPKGPSSVED-IKAK-COOH (SEQ ID NO: 10). […] A total of 42 control and 56 experimental animals were studied.
Transient exposure to metabolic inhibitors replicates ischemia in vivo by activating Bax and causing cell death.13,29,36-38 Cell viability was assayed using a modified colorimetric technique (MTTassay).37 The number of surviving cells is expressed as a percentage of viable control cells detected at baseline. Serum BUN and creatinine levels were measured in tail vein blood samples for 7 days after ischemia using QuantiChrom BUN or creatinine assay kits (BioAssay Systems, Hayward, CA) according to the manufacturer's instructions.

Data set [2] relates to PTEC. Nature of the data set: Toxicity of pharmacologic agents in PTEC. It is filed as cell-based. As to conditions: exposure to the IC50 dose for 48-72 hr; data not shown. The source says:
The inventors have also tested pharmacologic agents that disrupt NPM-Bax at specific steps in the cell death pathway (outlined in FIG. 11). These agents include geronylgeronylacetone (GGA), a potent Hsp70 inducer86, avrainvillamide, and NSC34888437. […] The inventors recently reported that GGA induces Hsp70 in murine PTEC and in the intact murine kidney. Hsp70 markedly reduces NPM-Bax complex formation during ischemic stress by 2 distinct mechanisms: a nucleolar-restricted Hsp70 mutant limits NPM translocation into the cytosol, whereas a cytosol restricted Hsp70 mutant sequesters […].

Consider `CC(=O)CC/C=C(\C)CC/C=C(\C)CC/C=C(\C)CCC=C(C)C` [GGA, geronylgeronylacetone, reference compound], for which, in data set [1], the Animal survival entry is “all survived” and the “Mean peak BUN” value came to 100 m/dl. The “PTEC morphology and toxicity” value in data set [2] was “does not alter PTEC morphology or cause significant toxicity”.
